Experimental data taken from patent US20050234046A1 (Kalypsys, Inc., priority 2004, published 2005).

Columns and labels:
Assay in all cases: Transient transfection (transactivation) assay in CV-1 cells, GAL4-PPAR chimera, luciferase reporter
Type in all cases: cell-based
PPAR delta = biological target: T1, PPAR delta (Homo sapiens, UniProt Q03181)
T1 construct: expressed in transfected cells; host or cells: CV-1 cells
T1 sequence (Q03181 211-439 limits assumed): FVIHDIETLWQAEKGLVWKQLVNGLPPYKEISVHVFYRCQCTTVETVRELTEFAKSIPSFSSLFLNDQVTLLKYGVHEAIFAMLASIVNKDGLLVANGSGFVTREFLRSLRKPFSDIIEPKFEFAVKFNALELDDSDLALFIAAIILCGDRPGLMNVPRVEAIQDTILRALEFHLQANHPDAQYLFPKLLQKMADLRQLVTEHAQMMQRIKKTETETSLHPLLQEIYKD

PPAR alpha = biological target: T2, PPAR alpha (Homo sapiens, UniProt Q07869)
T2 construct: expressed in transfected cells; host or cells: CV-1 cells
T2 sequence (Q07869 239-466 limits assumed): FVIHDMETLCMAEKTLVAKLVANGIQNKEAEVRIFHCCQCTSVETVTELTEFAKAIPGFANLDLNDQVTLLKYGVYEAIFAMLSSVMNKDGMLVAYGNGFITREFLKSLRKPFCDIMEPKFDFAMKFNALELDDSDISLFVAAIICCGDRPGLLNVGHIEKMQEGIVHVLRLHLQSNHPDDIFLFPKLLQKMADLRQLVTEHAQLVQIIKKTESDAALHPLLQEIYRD
Method in brief: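 EC50 and efficacy come from a luciferase read-out after 20-24 hours of compound exposure (vehicle 1% DMSO) in transiently transfected CV-1 cells. These cells express a GAL4-PPAR ligand-binding-domain chimera plus a reporter with four or five GAL4 binding sites, and are kept in phenol-red free DME with 5% delipidated calf serum.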

PPAR gamma = biological target: T3, PPAR gamma (Homo sapiens, UniProt P37231)
T3 construct: expressed in transfected cells; host or cells: CV-1 cells
T3 sequence (P37231 238-503 limits assumed): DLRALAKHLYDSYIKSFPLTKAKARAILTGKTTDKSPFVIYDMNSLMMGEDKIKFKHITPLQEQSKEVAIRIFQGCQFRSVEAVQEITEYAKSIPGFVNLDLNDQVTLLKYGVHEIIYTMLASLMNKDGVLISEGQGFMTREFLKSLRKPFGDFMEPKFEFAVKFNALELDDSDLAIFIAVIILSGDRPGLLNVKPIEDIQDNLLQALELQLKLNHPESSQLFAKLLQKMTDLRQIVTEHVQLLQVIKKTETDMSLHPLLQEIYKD

Row | Structure (SMILES) | EC50 (PPAR delta) | EC50 (PPAR alpha) | EC50 (PPAR gamma)
1 | C[C@@H]1CN(c2ccc(C(F)(F)F)cn2)C[C@H](C)N1S(=O)(=O)c1ccc(F)c(CC(=O)O)c1F [Example 231, {3-[2,6-Dimethyl-4-(5-trifluoromethyl-pyridin-2-yl)-piperazine-1-sulfonyl]-2,6-difluoro-phenyl}-acetic acid] | 5 to 100 µM | > 100 µM | > 100 µM
2 | Cc1cc(CC(=O)O)cc(S(=O)(=O)N2C3CCC2CN(c2ccc(OC(F)(F)F)cc2)C3)c1 [Example 233, {3-Methyl-5-[3-(4-trifluoromethoxy-phenyl)-3,8-diaza-bicyclo[3.2.1]octane-8-sulfonyl]-phenyl}-acetic acid] | < 5 µM | 5 to 100 µM | 5 to 100 µM

Now from value to molecule:

Row | EC50 (PPAR delta) | EC50 (PPAR alpha) | EC50 (PPAR gamma) | Structure (SMILES)
3 | < 5 µM | > 100 µM | > 100 µM | Cc1cc(CC(=O)O)cc(S(=O)(=O)N2[C@H](C)CN(c3ccc(C(F)(F)F)cn3)C[C@@H]2C)c1 [Example 229, {3-[2,6-Dimethyl-4-(5-trifluoromethyl-pyridin-2-yl)-piperazine-1-sulfonyl]-5-methyl-phenyl}-acetic acid]
4 | < 5 µM | 5 to 100 µM | 5 to 100 µM | O=C(O)Cc1c(F)ccc(S(=O)(=O)N2CCN(c3ccc(C(F)(F)F)cn3)CC2)c1F [Example 230, {2,6-Difluoro-3-[4-(5-trifluoromethyl-pyridin-2-yl)-piperazine-1-sulfonyl]-phenyl}-acetic acid]
5 | < 5 µM | > 100 µM | > 100 µM | C[C@@H]1CN(c2ccc(OC(F)(F)F)cc2)C[C@H](C)N1S(=O)(=O)c1ccc(F)c(CC(=O)O)c1F [Example 232, {3-[2,6-Dimethyl-4-(4-trifluoromethoxy-phenyl)-piperazine-1-sulfonyl]-2,6-difluoro-phenyl}-acetic acid]
